Reference: patent publication US4604355A, “Maltogenic amylase enzyme, preparation and use thereof” (Novo Industri A/S, priority 1983, dated 1986)

Molecular target: T1, C599 maltogenic amylase from Bacillus strain C599 NCIB 11837 (Geobacillus stearothermophilus, UniProt P19531)
T1 construct: The enzyme is excreted into the medium; made in house; host or cells: Bacillus strain C599 (NCIB 11837), the natural producer; no recombinant host
T1 sequence (P19531 34-719): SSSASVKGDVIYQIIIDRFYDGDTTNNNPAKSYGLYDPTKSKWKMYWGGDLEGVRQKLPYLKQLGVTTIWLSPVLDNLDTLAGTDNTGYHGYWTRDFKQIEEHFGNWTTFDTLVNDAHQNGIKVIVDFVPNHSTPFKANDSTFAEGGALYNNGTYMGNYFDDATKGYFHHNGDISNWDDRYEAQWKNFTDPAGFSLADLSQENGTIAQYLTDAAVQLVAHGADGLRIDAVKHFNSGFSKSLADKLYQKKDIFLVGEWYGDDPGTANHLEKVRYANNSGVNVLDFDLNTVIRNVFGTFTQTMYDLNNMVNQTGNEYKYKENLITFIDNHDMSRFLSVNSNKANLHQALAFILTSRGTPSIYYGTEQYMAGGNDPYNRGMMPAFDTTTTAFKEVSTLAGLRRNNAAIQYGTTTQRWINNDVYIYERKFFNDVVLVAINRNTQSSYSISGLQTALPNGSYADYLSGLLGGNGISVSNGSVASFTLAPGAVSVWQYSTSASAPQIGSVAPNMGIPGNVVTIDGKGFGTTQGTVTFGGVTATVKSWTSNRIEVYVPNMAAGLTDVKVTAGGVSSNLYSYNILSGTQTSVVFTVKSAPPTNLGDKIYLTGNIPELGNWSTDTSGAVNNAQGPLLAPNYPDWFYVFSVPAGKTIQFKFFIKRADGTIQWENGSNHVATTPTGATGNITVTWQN
Assay: Inhibition of C599-amylase (residual activity after incubation with inhibitors)
Type: biochemical
Settings: None = 100
Description: One maltogenic amylase unit (U) is defined as the amount of enzyme which under standard conditions (temperature 60° C., pH 5.5, and reaction time 30 minutes) produces reducing sugar corresponding to 1 μmol maltose per minute.
A 0.5% soluble starch (supplied by Merck) in 0.1M acetate buffer or 0.05M phosphate buffer (pH 5) is incubated with 1 ml of the enzyme dissolved in deionized water containing 0.1-0.2 U per ml. The reaction is stopped after 30 minutes by addition of 4 ml 0.5N NaOH.
The content of reducing sugar is then determined by means of the Somogyi method (Somogyi: J.Biol.Chem., 153, p. 375-80 (1944).

SMILES	Residual activity after 60 min. at room temperature, % (inhibitor 1 mM)	Residual activity after 60 min. at room temperature, % (inhibitor 1%)
O=C(O)c1cc[c]([Hg][Cl])cc1 [PCMB, parachloromecuribenzoate]	92%	
OC[C@H]1O[C@@H]2O[C@H]3[C@H](O)[C@@H](O)[C@@H](O[C@H]4[C@H](O)[C@@H](O)[C@@H](O[C@H]5[C@H](O)[C@@H](O)[C@@H](O[C@H]6[C@H](O)[C@@H](O)[C@@H](O[C@H]7[C@H](O)[C@@H](O)[C@@H](O[C@H]1[C@H](O)[C@H]2O)O[C@@H]7CO)O[C@@H]6CO)O[C@@H]5CO)O[C@@H]4CO)O[C@@H]3CO [Schardinger-α-cyclodextrin]		109%
OC[C@H]1O[C@@H]2O[C@H]3[C@H](O)[C@@H](O)[C@@H](O[C@H]4[C@H](O)[C@@H](O)[C@@H](O[C@H]5[C@H](O)[C@@H](O)[C@@H](O[C@H]6[C@H](O)[C@@H](O)[C@@H](O[C@H]7[C@H](O)[C@@H](O)[C@@H](O[C@H]8[C@H](O)[C@@H](O)[C@@H](O[C@H]1[C@H](O)[C@H]2O)O[C@@H]8CO)O[C@@H]7CO)O[C@@H]6CO)O[C@@H]5CO)O[C@@H]4CO)O[C@@H]3CO [Schardinger-β-cyclodextrin]		107%
